Results as given in US20150296790A1, “SILICON-CONTAINING COMPOUND AQUEOUS SOLUTION AND ANTIBACTERIAL/ANTIVIRAL AGENT INCLUDING SAID SOLUTION” (JEX CO., LTD., priority 2012, published 2015).

Test: Solubility of Silicon-Containing Compound E in aqueous CD solutions (clarity and stability, visual)
Assay type: physicochemical
Design: key to Solubility of Compound E: Stability: OK: When the aqueous solutions of the CD and the Silicon-Containing Compound E did not exhibit the conditions such as presence of precipitates and deposits, the solutions were considered as stable; NG: When the aqueous solutions of the CD and the Silicon-Containing Compound E exhibited the conditions such as presence of precipitates and deposits, the solutions were not considered as stable; key to Solubility of Compound E: Clarity: When the aqueous solutions of the CD and the Silicon-Containing Compound E were clear, the solutions were rated as “OK”; When the aqueous solutions of the CD and the Silicon-Containing Compound E were not clear, the solutions were rated as “NG”
Conditions: purified water
Procedure: To determine “Solubility of Compound E” in the tables, the Silicon-Containing Compound E as another solute was added at respective ratios shown in the respective tables (see “Ratio of Compound E” in the tables) to the respective aqueous CD solutions after evaluation of the solubility of CD, and then the mixture was stirred on a shaker to prepare the respective aqueous solutions of the CD and the Silicon-Containing Compound E. Immediately after preparation of the aqueous solutions of the CD and the Silicon-Containing Compound E, the clarity of the aqueous solutions was visually evaluated. When the aqueous solutions of the CD and the Silicon-Containing Compound E were clear, the solutions were rated as “OK”. When the aqueous solutions of the CD and the Silicon-Containing Compound E were not clear, the solutions were rated as “NG”. “Stability” in “Solubility of Compound E” in the tables was determined by allowing the respective aqueous solutions of the CD and the Silicon-Containing Compound E after preparation to stand at ambient temperature for a predetermined period and then visually evaluating the conditions (such as presence of precipitates and deposits) of the solutions.

[1] = β-CD 1 w/w %, Compound E 0.3 w/w %
[2] = β-CD 1 w/w %, Compound E 0.4 w/w %
[3] = β-CD 1 w/w %, Compound E 0.5 w/w %
[4] = β-CD 1 w/w %, Compound E 0.6 w/w %
[5] = β-CD 1 w/w %, Compound E 0.7 w/w %
[6] = β-CD 1 w/w %, Compound E 0.8 w/w %
[7] = β-CD 1 w/w %, Compound E 0.9 w/w %
[8] = β-CD 1 w/w %, Compound E 1 w/w %
[9] = γ-CD 1 w/w %, Compound E 0.1 w/w %
[10] = γ-CD 1 w/w %, Compound E 0.2 w/w %
[11] = γ-CD 1 w/w %, Compound E 0.3 w/w %
[12] = γ-CD 1 w/w %, Compound E 0.4 w/w %
[13] = γ-CD 1 w/w %, Compound E 0.5 w/w %
[14] = γ-CD 1 w/w %, Compound E 0.6 w/w %
[15] = γ-CD 1 w/w %, Compound E 0.7 w/w %
[16] = γ-CD 1 w/w %, Compound E 0.8 w/w %
[17] = γ-CD 1 w/w %, Compound E 0.9 w/w %
[18] = γ-CD 1 w/w %, Compound E 1 w/w %
[19] = γ-CD 3 w/w %, Compound E 0.1 w/w %
[20] = γ-CD 3 w/w %, Compound E 0.2 w/w %
[21] = γ-CD 3 w/w %, Compound E 0.3 w/w %
[22] = γ-CD 3 w/w %, Compound E 0.4 w/w %
[23] = γ-CD 3 w/w %, Compound E 0.5 w/w %
[24] = γ-CD 3 w/w %, Compound E 0.6 w/w %
[25] = γ-CD 3 w/w %, Compound E 0.7 w/w %
[26] = γ-CD 3 w/w %, Compound E 0.8 w/w %
[27] = γ-CD 3 w/w %, Compound E 0.9 w/w %
[28] = γ-CD 3 w/w %, Compound E 1 w/w %
[29] = γ-CD 6 w/w %, Compound E 0.1 w/w %
[30] = γ-CD 6 w/w %, Compound E 0.2 w/w %
[31] = γ-CD 6 w/w %, Compound E 0.3 w/w %
[32] = γ-CD 6 w/w %, Compound E 0.4 w/w %
[33] = γ-CD 6 w/w %, Compound E 0.5 w/w %
[34] = γ-CD 6 w/w %, Compound E 0.6 w/w %
[35] = γ-CD 6 w/w %, Compound E 0.7 w/w %
[36] = γ-CD 6 w/w %, Compound E 0.8 w/w %
[37] = γ-CD 6 w/w %, Compound E 0.9 w/w %
[38] = γ-CD 6 w/w %, Compound E 1 w/w %
[39] = γ-CD 10 w/w %, Compound E 0.1 w/w %
[40] = γ-CD 10 w/w %, Compound E 0.2 w/w %
[41] = γ-CD 10 w/w %, Compound E 0.3 w/w %
[42] = γ-CD 10 w/w %, Compound E 0.4 w/w %
[43] = γ-CD 10 w/w %, Compound E 0.5 w/w %
[44] = γ-CD 10 w/w %, Compound E 0.6 w/w %
[45] = γ-CD 10 w/w %, Compound E 0.7 w/w %
[46] = γ-CD 10 w/w %, Compound E 0.8 w/w %
[47] = γ-CD 10 w/w %, Compound E 0.9 w/w %
[48] = γ-CD 10 w/w %, Compound E 1 w/w %

Compound: CCCCCCCCCCCCCCCCCC[N+](C)(C)CCC[Si](OCC)(OCC)OCC.[Cl-] [Compound E, Octadecyl dimethyl(3-triethoxysilylpropyl)ammonium chloride]
- Solubility of Compound E: Stability (β-CD 1 w/w %, Compound E 0.2 w/w %): OK
- Solubility of Compound E: Clarity [1]: NG
- Solubility of Compound E: Stability [1]: OK
- Solubility of Compound E: Clarity [2]: NG
- Solubility of Compound E: Stability [2]: OK
- Solubility of Compound E: Clarity [3]: NG
- Solubility of Compound E: Stability [3]: OK
- Solubility of Compound E: Clarity [4]: NG
- Solubility of Compound E: Stability [4]: OK
- Solubility of Compound E: Clarity [5]: NG
- Solubility of Compound E: Stability [5]: OK
- Solubility of Compound E: Clarity [6]: NG
- Solubility of Compound E: Stability [6]: OK
- Solubility of Compound E: Clarity [7]: NG
- Solubility of Compound E: Stability [7]: OK
- Solubility of Compound E: Clarity [8]: NG
- Solubility of Compound E: Stability [8]: OK
- Solubility of Compound E: Clarity [9]: OK
- Solubility of Compound E: Stability [9]: OK
- Solubility of Compound E: Clarity [10]: OK
- Solubility of Compound E: Stability [10]: OK
- Solubility of Compound E: Clarity [11]: OK
- Solubility of Compound E: Stability [11]: OK
- Solubility of Compound E: Clarity [12]: OK
- Solubility of Compound E: Stability [12]: OK
- Solubility of Compound E: Clarity [13]: NG
- Solubility of Compound E: Stability [13]: OK
- Solubility of Compound E: Clarity [14]: NG
- Solubility of Compound E: Stability [14]: OK
- Solubility of Compound E: Clarity [15]: NG
- Solubility of Compound E: Stability [15]: OK
- Solubility of Compound E: Clarity [16]: NG
- Solubility of Compound E: Stability [16]: OK
- Solubility of Compound E: Clarity [17]: NG
- Solubility of Compound E: Stability [17]: OK
- Solubility of Compound E: Clarity [18]: NG
- Solubility of Compound E: Stability [18]: OK
- Solubility of Compound E: Clarity [19]: NG
- Solubility of Compound E: Stability [19]: OK
- Solubility of Compound E: Clarity [20]: NG
- Solubility of Compound E: Stability [20]: OK
- Solubility of Compound E: Clarity [21]: NG
- Solubility of Compound E: Stability [21]: OK
- Solubility of Compound E: Clarity [22]: NG
- Solubility of Compound E: Stability [22]: OK
- Solubility of Compound E: Clarity [23]: NG
- Solubility of Compound E: Stability [23]: OK
- Solubility of Compound E: Clarity [24]: NG
- Solubility of Compound E: Stability [24]: OK
- Solubility of Compound E: Clarity [25]: NG
- Solubility of Compound E: Stability [25]: OK
- Solubility of Compound E: Clarity [26]: NG
- Solubility of Compound E: Stability [26]: OK
- Solubility of Compound E: Clarity [27]: NG
- Solubility of Compound E: Stability [27]: OK
- Solubility of Compound E: Clarity [28]: NG
- Solubility of Compound E: Stability [28]: OK
- Solubility of Compound E: Clarity [29]: NG
- Solubility of Compound E: Stability [29]: OK
- Solubility of Compound E: Clarity [30]: NG
- Solubility of Compound E: Stability [30]: OK
- Solubility of Compound E: Clarity [31]: NG
- Solubility of Compound E: Stability [31]: OK
- Solubility of Compound E: Clarity [32]: NG
- Solubility of Compound E: Stability [32]: OK
- Solubility of Compound E: Clarity [33]: NG
- Solubility of Compound E: Stability [33]: OK
- Solubility of Compound E: Clarity [34]: NG
- Solubility of Compound E: Stability [34]: OK
- Solubility of Compound E: Clarity [35]: NG
- Solubility of Compound E: Stability [35]: OK
- Solubility of Compound E: Clarity [36]: NG
- Solubility of Compound E: Stability [36]: OK
- Solubility of Compound E: Clarity [37]: NG
- Solubility of Compound E: Stability [37]: OK
- Solubility of Compound E: Clarity [38]: NG
- Solubility of Compound E: Stability [38]: OK
- Solubility of Compound E: Clarity [39]: NG
- Solubility of Compound E: Stability [39]: NG
- Solubility of Compound E: Clarity [40]: NG
- Solubility of Compound E: Stability [40]: NG
- Solubility of Compound E: Clarity [41]: NG
- Solubility of Compound E: Stability [41]: NG
- Solubility of Compound E: Clarity [42]: NG
- Solubility of Compound E: Stability [42]: NG
- Solubility of Compound E: Clarity [43]: NG
- Solubility of Compound E: Stability [43]: NG
- Solubility of Compound E: Clarity [44]: NG
- Solubility of Compound E: Stability [44]: NG
- Solubility of Compound E: Clarity [45]: NG
- Solubility of Compound E: Stability [45]: NG
- Solubility of Compound E: Clarity [46]: NG
- Solubility of Compound E: Stability [46]: NG
- Solubility of Compound E: Clarity [47]: NG
- Solubility of Compound E: Stability [47]: NG
- Solubility of Compound E: Clarity [48]: NG
- Solubility of Compound E: Stability [48]: NG
